Data taken from article PMC11845649, “Unravelling physical and radiobiological effects of proton boron fusion reaction with anionic metallacarboranes ([o-COSAN]^-) in breast cancer cells” (EJNMMI Research, 2025).

Tests used:
[1] = tested on: MDA-MB-231 tumor-bearing mice; assay: Biodistribution, boron by ICP-OES in MDA-MB-231 xenograft model; format: in vivo, mice (Balb/cSlc-nu/nu); conditions: 7.5 mgB/kg intravenously
Procedure: MDA-MB-231 tumor-bearing mice (Balb/cSlc-nu/nu, female, 5–6 weeks old, 14–20 g, Sankyo Labo Service Co., Ltd., Japan) were prepared by injecting subcutaneously (s.c.) a suspension of MDA-MB-231 cells (8.0 × 10^5 cells/mouse) directly into the right thigh. The mice were kept on a regular chow diet and water and maintained under 12 h light/dark cycle in an ambient atmosphere. When the tumor diameter became 5 to 7 mm, the mice were injected via the tail vein with a 200 µL PBS solution of Na[o-COSAN] (7.5 mgB/kg). At 1 h after injection, the mice were lightly anesthetized, and blood samples were collected by cardiac puncture. The mice were then sacrificed by cervical dislocation and dissected. Heart, liver, lung, kidney, spleen, muscle, brain and tumor were excised, washed with 0.9% NaCl solution, and weighed. The excised organs were digested with 1 mL of HNO3 at 90 °C for 1 h, and then the digested samples were diluted with distilled water. After filtering through a hydrophobic filter, boron concentration was measured by an inductively coupled plasma optical emission spectroscopy (ICP-OES, iCAP 7400 Duo, Thermo Fisher Scientific Inc., USA). All animal experiments were conducted in accordance with the Guide for the Care and Use of Laboratory Animals approved by the Animal Use Review Board and Ethical Committee of Tokyo Institute of Technology (Permission number: D2021007).
The biodistribution studies provide important preclinical information regarding the identity of the potential target organs and tissues. Na[o-COSAN] (7.5 mgB/kg) was administrated intravenously to MDA-MB-231 breast cancer xenograft model mice, and boron uptake in the target organs was evaluated at 1 and 4 h post-injection.

[2] = set-up: method as in doi:10.1021/cr00010a005, PMID 34944987, PMID 34576098; conditions: cited from earlier work
[3] = tested on: MDA-MB-231 cells; assay: γ-H2AX foci quantification after proton irradiation; format: cell-based
Procedure: (§1) Proton irradiation was performed in air using the external microbeam facility at the Van de Graaff accelerator of the CTN/IST. Briefly, a focused 2.0 MeV proton beam of ∼70 × 70 µm^2 was used and rastered scanned over a cell monolayer placed in a cell plate, positioned prependicular to the proton beam path. The raster scan duration and the irradiation time of 10 s ensured irradiation homogeneity. The maximum achievable scan area is in the range of 0.08–0.13 cm^2 (corresponding to 40% of the total area of one well, 0.32 cm^2, in a 96-well plate). A proton beam current in the pA range was used, corresponding to a proton intensity of 2–6 × 10^6 protons/s. Prior to irradiation, part of the culture medium was removed, as described elsewhere. The proton beam energy was tuned to 675 keV (main resonance energy of the proton-boron nuclear reaction) within the cell layer by controlling the air path length and using Mylar^R foils as attenuators. The details of the irradiation geometry are described above and illustrated in Fig. 2.
MDA-MB-231 cells were seeded at a density of 10,000 cells per well in an eight-well chamber slide and allowed to attach overnight. Cells were incubated with 50 and 100 µM of Na[o-COSAN], for 24 h at 37 °C, and then irradiated with protons, as described in 2.4. MDA-MB-231 cells were washed three times with PBS and fixed with 4% formaldehyde in PBS for 15 min. After washing with PBS, cells were permeabilized with Triton X-100 (0.5%) at room temperature for 5 min followed by two washing steps with 1% BSA in PBS. Then, cells were incubated with an anti-γ-H2AX primary antibody (mouse anti-γ-H2AX (ser139), Stressgen) at 2 µg/mL for 1 h. […] Cells were analyzed at under ×64 magnification. Several high-quality 2D images were randomly collected in each slide and analyzed using a modified Speckle Count pipeline from the freeware CellProfiler. At least 200 nuclei were analyzed per experiment per dose. […]
The efficiency of [o-COSAN]^- was evaluated after irradiation with 8 Gy of protons in MDA-MB-231 cells. […]

[4] = tested on: MDA-MB-231 cells; assay: Clonogenic cell survival after proton irradiation (PBFR, 675 keV); format: cell-based; conditions: for surviving fraction vs control irradiated cells: 24 h incubation, 8 Gy protons, p < 0.05
Procedure: as §1
MDA-MB-231 cells were seeded in each well of a 6 well plate and incubated for 24 h. Cells were incubated with 50 and 100 µM of Na[o-COSAN], for 24 h at 37 °C, and then irradiated with protons, as described in 2.3.1. After irradiation, fresh medium was added and cells were incubated for 7 days in the same conditions. After 7 days of incubation, the medium was aspirated and cells were fixed and stained with Giemsa’s azur eosin methylene blue solution diluted 5% v/v in buffer solution. Finally, colonies were manually counted. Moreover, a CellProfiler pipeline was used to check the size of the different colonies observed in order to assess whether proton irradiation interfered with the capacity of replication of MDA-MB-231 cells.
The efficiency of [o-COSAN]^- was evaluated after irradiation with 8 Gy of protons in MDA-MB-231 cells. The irradiation with protons was carried out assuming that the proton-boron nuclear reaction resonance energy of 675 keV was reached within the cell monolayer.

[5] = tested on: MDA-MB-231 cells; assay: Cellular uptake by nuclear microscopy (STIM, PIXE, EBS), Co as signature; format: cell-based
Procedure: MDA-MB-231 cells (10^4-10^5 cells) were seeded on 100 nm thick silicon nitride (Si3N4) membranes (Silson Ltd., UK), allowed to adhere, and incubated for 24 h in medium containing Na[o-COSAN] at 50 µM. The culture medium was removed and the monolayer of cells on the membranes was washed with cold PBS, immediately frozen at -80 °C, transferred to a cryostat at -25 °C and allowed to dry overnight for subsequent analysis of [o-COSAN]^− uptake. […] Briefly, a 2.0 MeV focused proton beam of 3 × 4 µm^2 was raster scanned across the target cell on the silicon nitride window, simultaneously delivering images of density by STIM (Scanning Transmission Ion Microscopy), elemental distributions by PIXE (Particle Induced X-ray Emission) and matrix constituents by EBS (Elastic Backscattering Spectroscopy). Spectra recorded and/or extracted from maps in selected regions of the cell allowed Co concentrations to be determined in major cell compartments, such as the cytoplasm and nucleus. At least three cells treated with Na[o-COSAN] at a concentration of 50 µM were analyzed, and Co concentrations were measured using a minimum of five spectra acquired from both the nucleus and cytoplasm regions. The average concentrations for each of these regions were calculated based on the individual spectra. Data acquisition, spectra processing and concentration calculation were performed using the OMDAQ-3 program (Oxford Microbeams Ltd., UK) (http://www.microbeams.co.uk/ Accessed 12-6-2024). Elemental concentrations are expressed as µg/g dry weight.
The uptake of [o-COSAN]^− in single MDA-MB-231 cells was analysed using a combination of nuclear microscopy techniques: STIM, PIXE, and EBS. These techniques allow correlative imaging and quantification of elemental distributions. […] These morphological details were essential for correlating with the elemental distributions obtained from PIXE and assessing localization. […] Therefore, considering the stoichiometry of the carborane cluster [C2B9H11]^−2.in the [o-COSAN]^− molecule, the boron-11 (^11B) content can be estimated. […] This is important information provided by nuclear microscopy. It will be needed for future advanced dosimetry studies, including PBFR.

[6] = tested on: MDA-MB-231 breast cancer cells; assay: MTT cell viability / cytotoxic activity; format: cell-based; conditions: MDA-MB-231, MTT, mean ± SD of two independent experiments
Procedure: MDA-MB-231 breast cancer cells were purchased from American Type Culture Collection (ATCC, HTB-26). Cells were cultured in DMEM medium supplemented with 10% fetal bovine serum (FBS) and incubated at 37 °C in a humidified 5% CO2 atmosphere. Na[o-COSAN] stock solutions at 1 mM were prepared in DMEM medium without supplements and kept at -20 °C. Cell viability was assessed using the MTT assay following a method similar to the one previously described. Briefly, MDA-MB-231 cells (0.8 − 5 × 10^4 cells/well) were seeded in 96-well plates and left to adhere. After 24 h, cells were incubated with increasing concentrations of Na[o-COSAN] from 1 µM to 1000 µM for 6 and 24 h. After incubation, the medium was removed, and each well was incubated with an MTT solution (0.5 mg/mL in medium) for 3 h at 37 °C. Then, the medium was discarded, and the formazan crystals were solubilized in 200 µL DMSO. Absorbance was measured at 570 nm using an Varioskan TM LUX microplate reader (Thermo Scientific, Waltham, MA, USA). The dose-response curve fit of the absorbance as a function of log10[concentration] was performed using GraphPad Prism software (version 9.5.1) to assess viability and IC50 (concentration at which half the cell population is expected to die) at 6 and 24 h. […]

[7] = tested on: U87 glioblastoma cells; set-up: method as in PMID 36373493; conditions: protons at 675 keV, dose 9 Gy; cited from earlier work

Which results are given for “sodium salt of cobaltabisdicarbollide [Na[o-COSAN]]”?
tumor boron uptake ([1]; 1 and 4 h post-injection): high and maintained after 4 h; boron accumulation in liver and lungs ([1]; 1 h post-injection): significant accumulation of boron; boron accumulation in kidney and spleen ([1]; 1 h post-injection, relative to liver and lungs): less; boron in target organs after 4 h ([1]; 4 h post-injection): considerable clearance of boron; stability [2]: remarkably stable; water solubility [2]: water-soluble; increase in average number of γ-H2AX foci ([3]; irradiated cells (8 Gy protons) incubated with 50 µM): 55%; increase in average number of γ-H2AX foci ([3]; irradiated cells (8 Gy protons) incubated with 100 µM): 27%; γ-H2AX foci induction without irradiation ([3]; non-irradiated cells): does not induce new γ-H2AX foci; surviving fraction vs control irradiated cells ([4]; 50 µM): significant decrease; surviving fraction vs control irradiated cells ([4]; 100 µM): significant decrease; decrease of average colony size vs cells irradiated with protons in the absence of compound ([4]; 100 µM, irradiated 8 Gy protons, p < 0.001): 40%; decrease of average colony size vs non-irradiated counterparts ([4]; 100 µM, irradiated 8 Gy protons, p < 0.01): 30%; effect on surviving fraction of treated non-irradiated cells ([4]; non-irradiated, vs control conditions): minor cytostatic effects; Co concentration, nucleus compared to cytoplasm ([5]; 24 h, 50 µM, Fig. 3C): significantly higher concentrations of Co in the nucleus compared to the cytoplasm; 11B content in the nucleus ([5]; estimated from Co concentration and cluster stoichiometry, 24 h, 50 µM): 425 µg/g; 11B atoms in the nuclear volume of a single cell ([5]; estimated from Co concentration, 24 h, 50 µM): approximately 2.3 × 10^9 atoms; average Co concentration in the nucleus ([5]; single MDA-MB-231 cells, 24 h incubation with 50 µM, PIXE, dry weight): 153 µg/g; IC50 ([6]; 6 h incubation): 245 ± 94 µM; IC50 ([6]; 24 h incubation): 137 µM

With ferrabis(dicarbollide) [Na[o-FESAN]] as the substance, how does the “cell viability and survival after proton irradiation” value [7] read?
Its value is “significant loss of cell viability and survival”.
